Values quoted from earlier work as cited in US12337056B2, “Topical compositions and methods” (MARY KAY INC., priority 2018, dated 2025).

Conditions: HyaClear Solution Presentation, Tri-K Industries, 2016

Sodium hyaluronate
skin barrier function: improve skin barrier function | skin desquamation: reduce skin desquamation | skin lubricity: increase skin lubricity | skin moisturization: increase skin moisturization | skin roughness: reduce skin roughness
